Source: ChEMBL document CHEMBL3864184, “Optimization of Highly Kinase Selective Bis-anilino Pyrimidine PAK1 Inhibitors” (ACS Med Chem Lett, 2016)

Experiment: Distribution coefficient, logD of the compound
Type: physicochemical
Details: octanol/water

Compound	logD
CCS(=O)(=O)c1cc(Nc2ncc(F)c(N(C)c3cc(CO)c(C)cc3C)n2)ccc1N1CCN(C)CC1	3.8
Cc1ccc(CO)cc1N(C)c1nc(Nc2ccc(N3CCN(C)CC3)c(S(C)(=O)=O)c2)ncc1F	2.6
Cc1cc(C)c(N(C)c2nc(Nc3ccc(N4CCN(C)CC4)cc3)ncc2F)cc1CO	3
CCN(c1cc(CO)ccc1C)c1nc(Nc2ccc(N3CCN(C)CC3)c(S(=O)(=O)CC)c2)ncc1F	3.5
CCS(=O)(=O)c1cc(Nc2ncc(F)c(N(Cc3ccccc3F)c3cc(CO)ccc3C)n2)ccc1N1CCN(C)CC1	3.3
CN(c1cccc(CO)c1)c1nc(Nc2cc(N3CCOCC3)cc(S(C)(=O)=O)c2)ncc1F	3
Cc1ccc(N(C)c2nc(Nc3cc(N4CCOCC4)cc(S(C)(=O)=O)c3)ncc2F)cc1CO	3.3
CCn1c(=O)c(-c2ccc(-c3cncs3)cc2Cl)cc2cnc(Nc3ccc(N4CCN(C)CC4)cc3)nc21	> 4
